Values of other authors as cited in patent US10864174B2, “Method maintaining iron homeostasis with shogaols” (priority 2016, dated 2020).

Legend:
[1] = test system: H1299 human lung cancer cells; details: one value given for both cell lines, read-out: IC50, growth inhibition
[2] = test system: HCT-116 human colon cancer cells; details: one value given for both cell lines, read-out: IC50, growth inhibition
arachidonic acid pathway = details: compared with [6]-gingerol
[3] = test system: nitric oxide (NO) synthesis; details: compared with [6]-gingerol

| SMILES | IC50 [1] | IC50 [2] | inhibitory effects on the arachidonic acid pathway (arachidonic acid pathway) | inhibitory effects on nitric oxide (NO) synthesis [3] |
| --- | --- | --- | --- | --- |
| CCCCC[C@H](O)CC(=O)CCc1ccc(O)c(OC)c1 [[6]-gingerol, reference compound] | ~150 µM | ~150 µM |  |  |
| CCCCC/C=C/C(=O)CCc1ccc(O)c(OC)c1 [[6]-shogaol] | ~8 µM | ~8 µM | much stronger inhibitory effects | much stronger inhibitory effects |
